Reference: PubChem BioAssay (NCI)
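Assay format: 96-well plates, 48-hour exposure. At the GI50, growth is halved. Definition used: TGI = concentration required for complete inhibition of growth.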

Assays:
Assay in all cases: NCI tumour cell line growth inhibition, 48 h
SK-OV-3 ovarian = tested on: SK-OV-3 ovarian
MCF7 breast = tested on: MCF7 breast
MALME-3M melanoma = tested on: MALME-3M melanoma
A549 NSCLC = tested on: A549 NSCLC
OVCAR-4 ovarian = tested on: OVCAR-4 ovarian
NCI-H226 lung = tested on: NCI-H226 lung
OVCAR-5 ovarian = tested on: OVCAR-5 ovarian
T-47D breast = tested on: T-47D breast
UO-31 renal = tested on: UO-31 renal
TK-10 renal = tested on: TK-10 renal
CAKI-1 renal = tested on: CAKI-1 renal
K-562 leukemia = tested on: K-562 leukemia
MDA-MB-231 breast = tested on: MDA-MB-231 breast
SF-295 CNS = tested on: SF-295 CNS
EKVX NSCLC = tested on: EKVX NSCLC
U251 CNS = tested on: U251 CNS
UACC-62 melanoma = tested on: UACC-62 melanoma
HCT-116 colon = tested on: HCT-116 colon
HOP-92 NSCLC = tested on: HOP-92 NSCLC
NCI/ADR-RES ovarian = tested on: NCI/ADR-RES ovarian
SK-MEL-28 melanoma = tested on: SK-MEL-28 melanoma
UACC-257 melanoma = tested on: UACC-257 melanoma
MDA-MB-435 = tested on: MDA-MB-435
CCRF-CEM leukemia = tested on: CCRF-CEM leukemia
LOX IMVI melanoma = tested on: LOX IMVI melanoma
SR leukemia = tested on: SR leukemia
NCI-H23 lung = tested on: NCI-H23 lung
HCC-2998 colon = tested on: HCC-2998 colon
SK-MEL-5 melanoma = tested on: SK-MEL-5 melanoma
HOP-62 NSCLC = tested on: HOP-62 NSCLC
SK-MEL-2 melanoma = tested on: SK-MEL-2 melanoma
NCI-H460 lung = tested on: NCI-H460 lung
M14 melanoma = tested on: M14 melanoma
MDA-N = tested on: MDA-N
MOLT-4 leukemia = tested on: MOLT-4 leukemia
BT-549 breast = tested on: BT-549 breast
SNB-19 CNS = tested on: SNB-19 CNS
DU-145 prostate = tested on: DU-145 prostate
786-0 renal = tested on: 786-0 renal
A498 renal = tested on: A498 renal
COLO 205 colon = tested on: COLO 205 colon
RXF 393 renal = tested on: RXF 393 renal
PC-3 prostate = tested on: PC-3 prostate
NCI-H522 lung = tested on: NCI-H522 lung
OVCAR-3 ovarian = tested on: OVCAR-3 ovarian
HCT-15 colon = tested on: HCT-15 colon
KM12 colon = tested on: KM12 colon
SW-620 colon = tested on: SW-620 colon
SN12C renal = tested on: SN12C renal
ACHN renal = tested on: ACHN renal
RPMI-8226 leukemia = tested on: RPMI-8226 leukemia
OVCAR-8 ovarian = tested on: OVCAR-8 ovarian
SF-268 CNS = tested on: SF-268 CNS
HL-60(TB) leukemia = tested on: HL-60(TB) leukemia
IGROV1 ovarian = tested on: IGROV1 ovarian
HT29 colon = tested on: HT29 colon
SF-539 CNS = tested on: SF-539 CNS
HS 578T breast = tested on: HS 578T breast
SNB-75 CNS = tested on: SNB-75 CNS

With `COc1ccccc1N1C(=O)/C(=C\c2cccc(Oc3ccccc3)c2)S(=O)(=O)C1c1ccccc1` (stereo unspecified) the TGI (SK-OV-3 ovarian) was > 100 µM, the TGI (MCF7 breast) was > 100 µM and the TGI (MALME-3M melanoma) was > 100 µM. For the same molecule, the TGI (A549 NSCLC) was > 100 µM, the TGI (OVCAR-4 ovarian) was > 100 µM and the TGI (NCI-H226 lung) was > 100 µM. For the same molecule, the TGI (OVCAR-5 ovarian) was > 100 µM, the TGI (T-47D breast) was > 100 µM and the TGI (UO-31 renal) was > 100 µM. The TGI (TK-10 renal) was > 100 µM, the TGI (CAKI-1 renal) was > 100 µM and the TGI (K-562 leukemia) was > 100 µM. The TGI (MDA-MB-231 breast) was > 100 µM, the TGI (SF-295 CNS) was > 100 µM and the TGI (EKVX NSCLC) was > 100 µM. The TGI (U251 CNS) was > 100 µM, the TGI (UACC-62 melanoma) was > 100 µM and the TGI (HCT-116 colon) was > 100 µM. The TGI (HOP-92 NSCLC) was > 100 µM, the TGI (NCI/ADR-RES ovarian) was 67.6 µM and the TGI (SK-MEL-28 melanoma) was > 100 µM. The TGI (UACC-257 melanoma) was > 100 µM, the TGI (MDA-MB-435) was > 100 µM and the TGI (CCRF-CEM leukemia) was > 100 µM. The TGI (LOX IMVI melanoma) was > 100 µM, the TGI (SR leukemia) was 56.2 µM and the TGI (NCI-H23 lung) was > 100 µM. The TGI (HCC-2998 colon) was > 100 µM, the TGI (SK-MEL-5 melanoma) was 53.7 µM and the TGI (HOP-62 NSCLC) was > 100 µM. The TGI (SK-MEL-2 melanoma) was 70.5 µM, the TGI (NCI-H460 lung) was > 100 µM and the TGI (M14 melanoma) was > 100 µM. The TGI (MDA-N) was > 100 µM, the TGI (MOLT-4 leukemia) was 32.8 µM and the TGI (BT-549 breast) was 83.6 µM. The TGI (SNB-19 CNS) was > 100 µM, the TGI (DU-145 prostate) was > 100 µM and the TGI (786-0 renal) was > 100 µM. The TGI (A498 renal) was > 100 µM, the TGI (COLO 205 colon) was 88.3 µM and the TGI (RXF 393 renal) was > 100 µM. For the same molecule, the TGI (PC-3 prostate) was > 100 µM, the TGI (NCI-H522 lung) was > 100 µM and the TGI (OVCAR-3 ovarian) was > 100 µM. The TGI (HCT-15 colon) was > 100 µM, the TGI (KM12 colon) was > 100 µM and the TGI (SW-620 colon) was > 100 µM. The TGI (SN12C renal) was > 100 µM and the TGI (ACHN renal) was > 100 µM.
With `Cc1nn2c(/C=C3\C(=O)Nc4ccccc43)c(C)nc2s1` the GI50 (SK-OV-3 ovarian) was 34.8 µM, the TGI (SK-OV-3 ovarian) was > 100 µM and the GI50 (MCF7 breast) was 7.46 µM. The TGI (MCF7 breast) was > 100 µM, the GI50 (MALME-3M melanoma) was > 100 µM and the TGI (MALME-3M melanoma) was > 100 µM. For the same molecule, the GI50 (A549 NSCLC) was 32.7 µM, the TGI (A549 NSCLC) was > 100 µM and the GI50 (OVCAR-4 ovarian) was > 100 µM. For the same molecule, the TGI (OVCAR-4 ovarian) was > 100 µM, the GI50 (RPMI-8226 leukemia) was 49 µM and the TGI (RPMI-8226 leukemia) was > 100 µM. The GI50 (NCI-H226 lung) was > 100 µM, the TGI (NCI-H226 lung) was > 100 µM and the GI50 (OVCAR-8 ovarian) was 77.8 µM. For the same molecule, the TGI (OVCAR-8 ovarian) was > 100 µM, the GI50 (OVCAR-5 ovarian) was 50.7 µM and the TGI (OVCAR-5 ovarian) was > 100 µM. For the same molecule, the GI50 (T-47D breast) was 32 µM, the TGI (T-47D breast) was > 100 µM and the GI50 (UO-31 renal) was 70 µM. For the same molecule, the TGI (UO-31 renal) was > 100 µM, the GI50 (SF-268 CNS) was 54.6 µM and the TGI (SF-268 CNS) was > 100 µM. The GI50 (TK-10 renal) was 88.7 µM, the TGI (TK-10 renal) was > 100 µM and the GI50 (HL-60(TB) leukemia) was 21 µM. For the same molecule, the TGI (HL-60(TB) leukemia) was > 100 µM, the GI50 (CAKI-1 renal) was > 100 µM and the TGI (CAKI-1 renal) was > 100 µM. For the same molecule, the GI50 (K-562 leukemia) was 6.71 µM, the TGI (K-562 leukemia) was > 100 µM and the GI50 (MDA-MB-231 breast) was > 100 µM. For the same molecule, the TGI (MDA-MB-231 breast) was > 100 µM, the GI50 (IGROV1 ovarian) was 30.6 µM and the TGI (IGROV1 ovarian) was > 100 µM. For the same molecule, the GI50 (SF-295 CNS) was 29.1 µM, the TGI (SF-295 CNS) was > 100 µM and the GI50 (EKVX NSCLC) was 74.1 µM. For the same molecule, the TGI (EKVX NSCLC) was > 100 µM, the GI50 (U251 CNS) was 71.9 µM and the TGI (U251 CNS) was > 100 µM. The GI50 (UACC-62 melanoma) was 35.5 µM, the TGI (UACC-62 melanoma) was > 100 µM and the GI50 (HCT-116 colon) was 15.7 µM. For the same molecule, the TGI (HCT-116 colon) was > 100 µM, the GI50 (HOP-92 NSCLC) was 61 µM and the TGI (HOP-92 NSCLC) was > 100 µM. The GI50 (NCI/ADR-RES ovarian) was 6.3 µM, the TGI (NCI/ADR-RES ovarian) was 99 µM and the GI50 (SK-MEL-28 melanoma) was > 100 µM. The TGI (SK-MEL-28 melanoma) was > 100 µM, the GI50 (UACC-257 melanoma) was > 100 µM and the TGI (UACC-257 melanoma) was > 100 µM. The GI50 (MDA-MB-435) was 2.85 µM, the TGI (MDA-MB-435) was > 100 µM and the GI50 (HT29 colon) was 5.32 µM. For the same molecule, the TGI (HT29 colon) was > 100 µM, the GI50 (CCRF-CEM leukemia) was 30.1 µM and the TGI (CCRF-CEM leukemia) was > 100 µM. For the same molecule, the GI50 (SF-539 CNS) was 49.8 µM, the TGI (SF-539 CNS) was > 100 µM and the GI50 (LOX IMVI melanoma) was 97.1 µM. The TGI (LOX IMVI melanoma) was > 100 µM, the GI50 (SR leukemia) was 4.86 µM and the TGI (SR leukemia) was > 100 µM. The GI50 (NCI-H23 lung) was 35.4 µM, the TGI (NCI-H23 lung) was > 100 µM and the GI50 (HCC-2998 colon) was 13.7 µM. The TGI (HCC-2998 colon) was > 100 µM, the GI50 (SK-MEL-5 melanoma) was 16.5 µM and the TGI (SK-MEL-5 melanoma) was > 100 µM. The GI50 (HS 578T breast) was 78 µM, the TGI (HS 578T breast) was > 100 µM and the GI50 (HOP-62 NSCLC) was 15.7 µM. For the same molecule, the TGI (HOP-62 NSCLC) was > 100 µM, the GI50 (SK-MEL-2 melanoma) was 27.6 µM and the TGI (SK-MEL-2 melanoma) was > 100 µM. The GI50 (NCI-H460 lung) was 13.3 µM, the TGI (NCI-H460 lung) was > 100 µM and the GI50 (M14 melanoma) was 12.3 µM. For the same molecule, the TGI (M14 melanoma) was > 100 µM, the GI50 (MOLT-4 leukemia) was 17.5 µM and the TGI (MOLT-4 leukemia) was > 100 µM. The GI50 (BT-549 breast) was > 100 µM, the TGI (BT-549 breast) was > 100 µM and the GI50 (SNB-19 CNS) was 45.7 µM. For the same molecule, the TGI (SNB-19 CNS) was > 100 µM, the GI50 (SNB-75 CNS) was 53.7 µM and the TGI (SNB-75 CNS) was > 100 µM. For the same molecule, the GI50 (DU-145 prostate) was 75.8 µM, the TGI (DU-145 prostate) was > 100 µM and the GI50 (786-0 renal) was 40.4 µM. For the same molecule, the TGI (786-0 renal) was > 100 µM, the GI50 (A498 renal) was 31.3 µM and the TGI (A498 renal) was > 100 µM. For the same molecule, the GI50 (COLO 205 colon) was 5.33 µM, the TGI (COLO 205 colon) was 63.4 µM and the GI50 (RXF 393 renal) was 26.2 µM. The TGI (RXF 393 renal) was 87.6 µM, the GI50 (PC-3 prostate) was 29.5 µM and the TGI (PC-3 prostate) was > 100 µM. For the same molecule, the GI50 (NCI-H522 lung) was 18.5 µM, the TGI (NCI-H522 lung) was > 100 µM and the GI50 (OVCAR-3 ovarian) was 35.6 µM. For the same molecule, the TGI (OVCAR-3 ovarian) was > 100 µM, the GI50 (HCT-15 colon) was 17.1 µM and the TGI (HCT-15 colon) was > 100 µM. The GI50 (KM12 colon) was 6.4 µM, the TGI (KM12 colon) was > 100 µM and the GI50 (SW-620 colon) was 8.87 µM. For the same molecule, the TGI (SW-620 colon) was > 100 µM, the GI50 (SN12C renal) was > 100 µM and the TGI (SN12C renal) was > 100 µM. For the same molecule, the GI50 (ACHN renal) was > 100 µM and the TGI (ACHN renal) was > 100 µM.
